Laboratory results: US6025365A, “Chelerythrine and radiation combined tumor therapy” (Arch Development Corp., priority 1997, dated 2000)

How the values were obtained:
WEHI-231 OE cells [1] = test: Radiation mediated apoptosis of WEHI-231 OE cells after C2-ceramide pre-treatment; type: cell-based, murine; details: C2-ceramide 30 minutes prior to 8 Gy, 24 hours
Description: FIG. 11A-1, FIG. 11A-2, and FIG. 11A-3. Exogenous ceramide can sensitize WEHI-231 OE cells to radiation mediated apoptosis. C2-ceramide (Cer) was added to 3×10^5 WEHI-231 OE cells 30 minutes prior to treatment with 8 Gy. Apoptosis was quantitated using propidium iodide staining and FACS analysis. Percent apoptotic cells are shown in gate R2 twenty-four hours following irradiation.
(§1) For viability staining, 2.5-3.5×10^5 cells were treated with varying concentrations of C2-ceramide, irradiation, or both.
(§2) In order to address the question of whether the resistance of the OE subline was due, in part, to alterations in ceramide metabolites or targets, three studies were performed. […] Both cell lines were equally susceptible to the effects of sphingosine kinase inhibition and the resulting […] in ceramide. […] Thus the radioresistance can be attributed to the lack of sphingomyelinase activation and the subsequent decreased ceramide production following irradiation.

WEHI-231 cells = test: Reactive oxygen species by dichlorodihydrofluorescein and FACS; type: cell-based, murine; details: 30 μM ceramide or 10 μM chelerythrine, 15 minutes; anti-IgM 2 hours
Description: FIGS. 8A-8C. Exogenous ceramide and PKC inhibition induce oxidative changes in WEHI-231 cells. WEHI-231 cells (1×10^6) were treated with anti-IgM antibodies for 2 hours (FIG. 8A), 30 μM exogenous ceramide for 15 minutes (FIG. 8B) or 10 μM chelerythrine for 15 minutes (FIG. 8C). The reactive oxygen species in the cells was then measured using dichlorodihydrofluorescein (DCHF-DA) and quantitated using FACS analysis. Histogram analysis of fluorescence is plotted as LOG function.
The mechanisms by which ceramide may mediate cell death is yet unknown. […] Since changes in oxidative status induced a wide range of cellular responses including growth and apoptosis in WEHI-231 and other lymphocytes, the inhibition of PKC and a resulting accumulation of ceramide were studied for their affect on the level of reactive oxygen species within the cell using the dye dichlorodihydrofluorescein and FACS analysis. […] While non-toxic oxidation may promote cell growth, intracellular reduction may lead to the activation of cysteine proteases which are proposed mediators of apoptosis.

WEHI-231 JM cells = test: Viability by PI staining and FACS, WEHI-231 JM; type: cell-based, murine; details: 24 hours
Description: (§3) FIG. 11B. WEHI-231 JM and OE cells are equally sensitive to inhibition of sphingosine kinase and exogenous ceramide. Cells were treated with increasing concentrations of C2-ceramide or DL-threo-dihydrosphingosine--apotent inhibitor of sphingosine kinase. Viability was assayed using PI staining and FACS analysis 24 hours after treatment.
as §1, §2

SQ20-B cells [2] = test: Clonogenic survival / colony formation assay; type: cell-based, human; details: 20 μM C2-ceramide 30 minutes prior to x-ray
Description: FIG. 2. Chelerythrine chloride enhanced IR-mediated cell killing through divisional death. Clonogenic survival was measured following exposure to increasing concentrations of chelerythrine and ionizing radiation. Cells were plated at cell numbers between about 500 cells/plate and about 2000 cells/plate and treated with 0 μM, 0.5 μM, or 1.0 μM chelerythrine chloride for 30 minutes prior to irradiation. After 2 weeks the colonies were scored for survival if they were composed of more than 50 cells. Results represent the mean of three individual experiments with duplicate or triplicate determinants. Error bars represent +/- the standard error of the means (SEM).
FIG. 5C. […] Closed circles represent radiation alone; closed squares represenet addition of 20 μM C2-Ceramide 30 minutes prior to x-ray.
Exponentially growing SQ20B cultures were trypsinized using 0.05% trypsin+0.02% EDTA. Cells (100 to 50,000) were plated in 100 mm tissue culture dishes. Chelerythrine or C2-ceramide was added 4 hours after plating and irradiated for 30 minutes after the addition of chelerythrine or C2-ceramide. The cells were irradiated using a GE Maxitron 250 x-ray generator operating at 250 kV and 26 mA with a dose rate of 114 cGy/min. After 12 days the cells were fixed and stained with crystal violet following standard procedures (Chmura et al., 1996a; 1996b). Colonies of >50 cells were scored as survivors.
Clonogenic survival was measured following increasing concentrations of chelerythrine chloride alone (0.5-1.5 μM), IR alone (1-9 Gy), or the combined treatment of cells with chelerythrine and IR. […] At a concentration of 500 nM, chelerythrine decreased cell survival to about 80% of untreated control cells (about 20% cell death). The combined treatment of cells with 500 nM of chelerythrine 30 minutes prior to treatment with 3 Gy of radiation decreased cell survival to about 30% of untreated cells (about 70% cell death). […] Cell shrinkage and nuclear condensation, characteristic of apoptosis, were not observed at these concentrations of chelerythrine and IR.

WEHI-231 OE cells [3] = test: Viability by PI staining and FACS, WEHI-231 OE; type: cell-based, murine; details: 24 hours
Description: as §3, §1, §2

[4] = tested on: bcl-x WEHI-231, MG and WEHI-231 OE (JM) cells; test: Effect of protease inhibitors on chelerythrine induced apoptosis in apoptosis-resistant cell lines; type: cell-based; details: ZVAD 20 μM, even at doses >15 μM chelerythrine
Description: Using the procedures already described (Chmura, 1996; Chmura et al., 1996a; Chmura et al., 1996b), three different apoptosis-resistant cell lines were examined for their susceptibility to apoptosis induced by chelerythrine. The three cell lines used were bcl-x WEHI-231, which represents WEHI-231 cells that have been transfected with bcl-x and are highly resistant to radiation induce apoptosis, MG cells and the WEHI-231 OE (JM) cells previously described.
All three cell lines were treated with chelerythrine and x-irradiation as previously described (Chmura et al., 1996a; Chmura et al., 1996b) with the following modifications. Cells were pre-exposed to YVAD-cmk (100 μM), a protease inhibitor of the interleukin 1-b converting enzyme (ICE) subfamily or to ZVAD (20 μM), which inhibits the cpp32β family of proteases, for 30 minutes before being subjected to chelerythrine.

SQ20-B cells [5] = test: Apoptosis in SQ20-B (propidium iodide FACS, DAPI staining, DNA laddering); type: cell-based, human
Description: FIGS. 3A-3E. […] M1 defines the % of apoptotic cells as defined by (a) propidium iodide uptake of 1 log or more fluorescence and (b) a decrease in cell size of 50% or more. FL3-Height indicated the uptake of propidium by the cell. In FIG. 3A, M1=5%; FIG. 3B, M1=22%; FIG. 3C, M1=73%; FIG. 3D, M1=16%; FIG. 3E, M1=24%.
Cells undergoing apoptosis also shrink in size.
Cells, 5×10^5, were centrifuged at 1000 rpm and resuspended in approximately 100 μl cell culture media. The cell suspension was then mixed with 100 μl of DAPI (4',6-iamidino-2-phenylindole, Sigma D9542, 1 μg/ml in PBT (PBS+1% Triton X-100)). One drop of this mixture was placed on a microslide with a coverslip. The cells were viewed by fluorescence microscopy using an Olympus BX-40 microscope with a 100 Watt Mercury lamp, a 16 or 40 X Fluorite objective, N.A. 0.75, (Leco #1-UB527) and a UV filter cube (ex 330-385 nm, em 420 nm, wide band pass, Leco #U-M536). Images were photographed using an Optronics cooled low-light video camera (Leco #DEI-470TB) to which was attached a 2X coupler (Leco #HR200-CMT). The image was saved to a digital file at 72 dpi.
DNA degradation was assessed as previously described (Gottschalk et al., 1993; 1994). Briefly, following treatment in 100 mm plates or 24 well plates, cells were collected and lysed in 0.5 ml lysis buffer (0.6% SDS+10 mM EDTA, pH 7.0). […]

Compound | apoptotic response of irradiated cells (WEHI-231 OE cells [1]) | reactive oxygen species (ROS) (WEHI-231 cells) | IC50 (WEHI-231 JM cells) [nM] | clonogenic survival of irradiated cultures (words) (SQ20-B cells [2]; listed as C2-Ceramide) | clonogenic survival of irradiated cultures (words) (SQ20-B cells [2]; listed as ceramide) | IC50 (WEHI-231 OE cells [3]) [nM] | inhibition of chelerythrine induced apoptosis [4] | apoptosis following combined IR and chelerythrine (2.5 μM), inhibition (SQ20-B cells [5]; zVAD-fmk 20 μM) | chelerythrine induced apoptosis, inhibition (SQ20-B cells [5]; zVAD-fmk with chelerythrine)
CCCCCCCCCCCCC/C=C/[C@@H](O)[C@H](CO)NC(C)=O [C2-ceramide] | restored the apoptotic response at 24 hours | reduced the ROS in the cells | 3000 | decreased clonogenic survival | enhanced IR induced cell killing | 3000 | – | – | –
zVAD-fmk | – | – | – | – | – | – | did block chelerythrine induced apoptosis | inhibited apoptosis | blocked chelerythrine induced apoptosis
